Results taken from patent US6362212B1, “Oxime derivative and bactericide containing the same as active ingredient” (Shionogi & Company, Ltd., priority 1994, dated 2002).

Key:
Type in all cases: in vivo
Sphaerotheca fuliginea = test: Controlling effect on Sphaerotheca fuliginea by foliage application (pot experiment); conditions: foliage spray on cucumber (cv. TSUKUBASHIROIBO) first leaves, infected area after 10 days in greenhouse at 20° C.
Protocol: The following Test Examples illustrate the effects of the fungicide of the present invention. (I. Controlling effects on various plant diseases by foliage application (pot experiment)) A test compound was dissolved in a small amount of N,N-dimethylformamide, and the solution was diluted to a given concentration with distilled water containing a spreader. Thus, a liquid sample to be tested was prepared. The liquid sample was sprayed to test plants, and 24 hours thereafter, pathogens were inoculated by the method described below. […] Seeds of cucumber ([…]) were sown in plastic cups (each 9 cm in diameter), followed by cultivation for 2 to 3 weeks. The liquid test sample in the form of a solution or suspension was sprayed on the surface of their first leaves. The pathogen was inoculated to the leaves by spraying a conidia suspension of Sphaerotheca fuliginea which had been cultured on the cucumber leaves. After the inoculation, the plants were kept in a greenhouse at 20° C. for 10 days. Then, the infected area on the leaf was observed, and the percent control was calculated.

Pyricularia oryzae = conditions: foliage spray on rice seedlings (cv. […]), number of lesions six days after the inoculation
[1] = tested on: Erysiphe graminis f. sp. tritici; test: Controlling effect on Erysiphe graminis f. sp. tritici by foliage application (pot experiment); conditions: foliage spray on wheat (cv. NORIN No. 61) seedlings, infected area after 10 days in greenhouse at 20° C.
Protocol: The following Test Examples illustrate the effects of the fungicide of the present invention. (I. Controlling effects on various plant diseases by foliage application (pot experiment)) A test compound was dissolved in a small amount of N,N-dimethylformamide, and the solution was diluted to a given concentration with distilled water containing a spreader. Thus, a liquid sample to be tested was prepared. The liquid sample was sprayed to test plants, and 24 hours thereafter, pathogens were inoculated by the method described below. […] The seeds of wheat (cv.: NORIN No. 61) were sown in plastic cups (each 9 cm in diameter), followed by cultivation for 2 to 3 weeks. The test compound in the form of a solution or suspension was sprayed to the seedlings, and conidia of Erysiphe graminis f. sp. tritici cultured on wheat leaves were dropped on the test plants to inoculate the plants with the pathogen. After the inoculation, the plants were kept in a greenhouse at 20° C. for 10 days. The infected area on the leaf was observed, and the percent control was calculated.

| Compound | Controlling effect on Sphaerotheca fuliginea by foliage application at 500 ppm (percent control) (Sphaerotheca fuliginea) | Controlling effect on PYricularia orYzae by foliage application at 500 ppm (percent control) (Pyricularia oryzae) | Controlling effect on ErYsiphe graminis f. sp. tritici by foliage application at 500 ppm (percent control) [1] |
| --- | --- | --- | --- |
| CON=C(c1ccon1)c1ccccc1COc1cccc(C(F)(F)F)c1 (mixture of isomers) [compound 322] | 100 percent control | 70 percent control | 70 percent control |
| CCON=C(c1ccon1)c1ccccc1COc1cc(C)ccc1C (mixture of isomers) [compound 1674] | 70 percent control | 70 percent control | 70 percent control |
| CON=C(c1ccccc1COc1ccc(Cl)cc1)c1nccn1C (single isomer, unassigned) [107A] | 100 percent control | 90 percent control | 70 percent control |
| CON=C(c1ccccc1COc1ccc(C)cc1)c1nccn1C (single isomer, unassigned) [114A] | 100 percent control | 90 percent control | 90 percent control |
| CON=C(c1ccccc1COc1ccc(Cl)cc1C)c1nccn1C (single isomer, unassigned) [141B] | 100 percent control | 70 percent control | – |
| CON=C(c1ccccc1COc1cc(C)ccc1C)c1ccnn1C (single isomer, unassigned) [1554A] | – | 70 percent control | 70 percent control |
| CON=C(c1ccccc1COc1cc(C)ccc1C)n1ccnc1 [Compound No. 39] | 100 percent control | 70 percent control | – |
| CON=C(c1ncon1)c1ccccc1COc1ccccc1C [Compound No. 812] | 100 percent control | 70 percent control | 100 percent control |
| CON=C(c1noc(C)n1)c1ccccc1COc1ccccc1C [Compound No. 912] | 100 percent control | 70 percent control | 90 percent control |
| CON=C(c1ccccc1COc1ccccc1)n1cnc(C)c1 [compound 221] | 97 percent control | 70 percent control | 70 percent control |
| CON=C(c1ccccc1COc1cccc(Cl)c1)n1cnc(C)c1 [compound 226] | 70 percent control | 70 percent control | 70 percent control |
| CON=C(c1ccccc1COc1ccccc1)n1cncn1 [compound 261] | 97 percent control | 70 percent control | 97 percent control |
| CON=C(c1ccccc1COc1cccc(Cl)c1)n1cncn1 [compound 266] | 97 percent control | 90 percent control | 97 percent control |
| CON=C(c1ccccc1COc1ccccc1)n1cccn1 [compound 281] | – | 70 percent control | 90 percent control |
| CCON=C(c1ccccc1COc1ccccc1)n1cccn1 [compound 295] | – | 90 percent control | 90 percent control |
| CON=C(c1ccccc1Oc1ccccc1)n1cccn1 [compound 300] | 70 percent control | 70 percent control | – |
| CON=C(C1=NCCO1)c1ccccc1COc1ccccc1C [compound 1310] | 90 percent control | 70 percent control | 90 percent control |
| CON=C(C1=NCCN1)c1ccccc1COc1ccccc1C [compound 1460] | – | 90 percent control | 90 percent control |
| CON=C(c1ncno1)c1ccccc1COc1ccccc1 [compound 1581] | 70 percent control | 70 percent control | – |
| CON=C(c1ccccc1CON=C(C)c1ccccc1)n1ccnc1 [compound 3041] | 97 percent control | 90 percent control | – |
